Several values for one entry are separate records, joined by “and”; a condition that tells them apart may be missing. Equal values may be shown once.
Assay: molar heat capacity at constant volume
Details: Vacuum adiabatic calorimetry

CC(C)O [propan-2-ol]
Fluid (supercritical or subcritical phases)
Details | molar heat capacity at constant volume
506.89 K, Mass density=324.5 kg/m3 | 348.43 J/K/mol and 347.05 J/K/mol
506.89 K, Mass density=343.1 kg/m3 | 330.28 J/K/mol
506.97 K, Mass density=329.2 kg/m3 | 330.22 J/K/mol
506.98 K, Mass density=288.99 kg/m3 | 360.33 J/K/mol
506.98 K, Mass density=324.5 kg/m3 | 352.64 J/K/mol
506.98 K, Mass density=343.1 kg/m3 | 333.83 J/K/mol
507.07 K, Mass density=288.99 kg/m3 | 365.74 J/K/mol
507.07 K, Mass density=324.5 kg/m3 | 346.75 J/K/mol
507.08 K, Mass density=343.1 kg/m3 | 331.96 J/K/mol
507.11 K, Mass density=329.2 kg/m3 | 342.54 J/K/mol
507.17 K, Mass density=288.99 kg/m3 | 355.1 J/K/mol
507.17 K, Mass density=293.3 kg/m3 | 358.29 J/K/mol
507.17 K, Mass density=324.5 kg/m3 | 351.56 J/K/mol
507.17 K, Mass density=343.1 kg/m3 | 333.89 J/K/mol
507.2 K, Mass density=329.2 kg/m3 | 339.6 J/K/mol
507.26 K, Mass density=288.99 kg/m3 | 361.53 J/K/mol
507.26 K, Mass density=324.5 kg/m3 | 348.79 J/K/mol
507.26 K, Mass density=343.1 kg/m3 | 336.65 J/K/mol
507.3 K, Mass density=329.2 kg/m3 | 339.42 J/K/mol
507.35 K, Mass density=293.3 kg/m3 | 367 J/K/mol
507.35 K, Mass density=324.5 kg/m3 | 351.56 J/K/mol
507.36 K, Mass density=343.1 kg/m3 | 338.58 J/K/mol
507.4 K, Mass density=329.2 kg/m3 | 335.93 J/K/mol
507.45 K, Mass density=293.3 kg/m3 | 363.82 J/K/mol
507.45 K, Mass density=324.5 kg/m3 | 357.02 J/K/mol
507.45 K, Mass density=343.1 kg/m3 | 335.69 J/K/mol
507.5 K, Mass density=329.2 kg/m3 | 343.02 J/K/mol
507.54 K, Mass density=293.3 kg/m3 | 371.39 J/K/mol
507.54 K, Mass density=324.5 kg/m3 | 349.09 J/K/mol
507.54 K, Mass density=343.1 kg/m3 | 337.79 J/K/mol
507.59 K, Mass density=329.2 kg/m3 | 338.94 J/K/mol
507.63 K, Mass density=293.3 kg/m3 | 367.06 J/K/mol
507.63 K, Mass density=324.5 kg/m3 | 353.72 J/K/mol
507.65 K, Mass density=343.1 kg/m3 | 339.78 J/K/mol
507.69 K, Mass density=329.2 kg/m3 | 354.86 J/K/mol
507.7 K, Mass density=329.2 kg/m3 | 347.95 J/K/mol
507.73 K, Mass density=293.3 kg/m3 | 369.4 J/K/mol
507.73 K, Mass density=324.5 kg/m3 | 360.99 J/K/mol
507.82 K, Mass density=274 kg/m3 | 385.09 J/K/mol
507.82 K, Mass density=293.3 kg/m3 | 371.39 J/K/mol
507.82 K, Mass density=324.5 kg/m3 | 358.53 J/K/mol
507.82 K, Mass density=343.1 kg/m3 | 338.76 J/K/mol
507.89 K, Mass density=329.2 kg/m3 | 352.76 J/K/mol
507.91 K, Mass density=274 kg/m3 | 385.33 J/K/mol
507.91 K, Mass density=293.3 kg/m3 | 375.83 J/K/mol
507.91 K, Mass density=324.5 kg/m3 | 365.2 J/K/mol
507.91 K, Mass density=343.1 kg/m3 | 340.98 J/K/mol
507.95 K, Mass density=343.1 kg/m3 | 342.54 J/K/mol and 212.44 J/K/mol
508.01 K, Mass density=234.3 kg/m3 | 436.29 J/K/mol
508.01 K, Mass density=255.8 kg/m3 | 424.87 J/K/mol
508.01 K, Mass density=274 kg/m3 | 393.86 J/K/mol
508.01 K, Mass density=293.3 kg/m3 | 380.52 J/K/mol
508.01 K, Mass density=324.5 kg/m3 | 363.27 J/K/mol
508.01 K, Mass density=343.1 kg/m3 | 205.52 J/K/mol
508.04 K, Mass density=329.2 kg/m3 | 358.17 J/K/mol
508.1 K, Mass density=234.3 kg/m3 | 442.3 J/K/mol
508.1 K, Mass density=255.8 kg/m3 | 425.65 J/K/mol
508.1 K, Mass density=266.3 kg/m3 | 412.31 J/K/mol
508.1 K, Mass density=274 kg/m3 | 396.93 J/K/mol
508.1 K, Mass density=281.9 kg/m3 | 391.7 J/K/mol
508.1 K, Mass density=293.3 kg/m3 | 381.6 J/K/mol
508.1 K, Mass density=324.5 kg/m3 | 367.06 J/K/mol
508.1 K, Mass density=343.1 kg/m3 | 191.64 J/K/mol
508.16 K, Mass density=329.2 kg/m3 | 363.76 J/K/mol and 218.14 J/K/mol
508.18 K, Mass density=329.2 kg/m3 | 208.53 J/K/mol
508.19 K, Mass density=234.3 kg/m3 | 447.71 J/K/mol
508.19 K, Mass density=255.8 kg/m3 | 429.38 J/K/mol
508.19 K, Mass density=266.3 kg/m3 | 417.66 J/K/mol
508.19 K, Mass density=274 kg/m3 | 404.38 J/K/mol
508.19 K, Mass density=281.9 kg/m3 | 398.49 J/K/mol
508.19 K, Mass density=288.99 kg/m3 | 390.74 J/K/mol
508.19 K, Mass density=293.3 kg/m3 | 383.29 J/K/mol
508.19 K, Mass density=324.5 kg/m3 | 370.25 J/K/mol
508.19 K, Mass density=343.1 kg/m3 | 187.98 J/K/mol
508.28 K, Mass density=234.3 kg/m3 | 453.36 J/K/mol
508.28 K, Mass density=255.8 kg/m3 | 438.99 J/K/mol
508.28 K, Mass density=266.3 kg/m3 | 426.19 J/K/mol
508.28 K, Mass density=274 kg/m3 | 414.84 J/K/mol
508.28 K, Mass density=281.9 kg/m3 | 409.07 J/K/mol
508.28 K, Mass density=288.99 kg/m3 | 395.61 J/K/mol
508.28 K, Mass density=293.3 kg/m3 | 391.22 J/K/mol
508.28 K, Mass density=324.5 kg/m3 | 371.75 J/K/mol and 221.39 J/K/mol
508.28 K, Mass density=329.2 kg/m3 | 195.91 J/K/mol
508.29 K, Mass density=343.1 kg/m3 | 181.07 J/K/mol
508.34 K, Mass density=324.5 kg/m3 | 214 J/K/mol
508.37 K, Mass density=329.2 kg/m3 | 192.6 J/K/mol
508.38 K, Mass density=234.3 kg/m3 | 464.9 J/K/mol
508.38 K, Mass density=255.8 kg/m3 | 446.27 J/K/mol
508.38 K, Mass density=266.3 kg/m3 | 435.27 J/K/mol

Liquid
Details | molar heat capacity at constant volume [J/K/mol]
507.95 K | 212.44
508.16 K | 218.14
508.28 K | 221.39
